Data reported in ChEMBL document CHEMBL1134738, “Alpha-ketoester-based photobiological switches: synthesis, peptide chain extension and assay against alpha-chymotrypsin” (Bioorg Med Chem Lett, 2001).

Assays:
Chymotrypsinogen A [1] = target: T1, Chymotrypsinogen A (Bos taurus, UniProt P00766); experiment: Inhibition constant for inhibition of alpha-chymotrypsin by the UV light
Chymotrypsinogen A [2] = target: T1, Chymotrypsinogen A; experiment: Inhibition constant for inhibition of alpha-chymotrypsin by the ambient light

Ki (Chymotrypsinogen A [1]) [µM] | Ki (Chymotrypsinogen A [2]) [µM] | SMILES
0.13 | 0.24 | COC(=O)C(=O)[C@H](Cc1ccccc1)NC(=O)c1ccc(/N=N/c2ccccc2)cc1
0.29 | 0.77 | COC(=O)C(=O)[C@H](Cc1ccccc1)NC(=O)OCc1ccc(/N=N/c2ccccc2)cc1
